Activity calls are given as the source filed them. The calls are words filed in the database; no cut-off is given here.
Experiments:
MCF7 [1] = assay: Inhibition of cell proliferation of human MCF7 cells incubated for 24 hrs; assay type: functional, cell-based; conditions: MCF7, 24 h
Protein phosphatase 1D = target: T1, Protein phosphatase 1D (Homo sapiens, UniProt O15297); assay: Inhibition of His-tagged PPM1D (1 to 420 residues) (unknown origin) expressed in Escherichia coli BL21 (DE3) pLysS cells using Ac-VEPPLS(P)QETFSDLW-NH2 substrate
T1 sequence (O15297 whole entry): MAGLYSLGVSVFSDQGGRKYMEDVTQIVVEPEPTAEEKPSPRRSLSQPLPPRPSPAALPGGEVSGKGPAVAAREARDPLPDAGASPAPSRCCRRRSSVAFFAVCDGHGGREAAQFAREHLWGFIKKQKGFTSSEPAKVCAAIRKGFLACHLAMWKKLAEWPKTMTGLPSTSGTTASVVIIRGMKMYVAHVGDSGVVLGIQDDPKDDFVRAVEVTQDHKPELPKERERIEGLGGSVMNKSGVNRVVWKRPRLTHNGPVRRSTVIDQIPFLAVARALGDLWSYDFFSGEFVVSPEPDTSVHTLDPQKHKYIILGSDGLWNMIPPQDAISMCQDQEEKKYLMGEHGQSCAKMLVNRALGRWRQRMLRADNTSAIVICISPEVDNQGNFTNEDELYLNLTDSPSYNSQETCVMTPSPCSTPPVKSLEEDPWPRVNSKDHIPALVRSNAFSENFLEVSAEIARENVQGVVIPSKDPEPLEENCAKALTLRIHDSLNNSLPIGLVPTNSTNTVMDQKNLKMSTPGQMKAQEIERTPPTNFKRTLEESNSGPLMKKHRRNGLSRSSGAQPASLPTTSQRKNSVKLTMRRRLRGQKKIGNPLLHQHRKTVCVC

NCI-H1299 [2] = assay: Inhibition of cell proliferation of human H1299 cells at 5 to 20 incubated for 24 hrs; assay type: functional, cell-based
NCI-H1299 [3] = assay: Inhibition of cell proliferation of human H1299 cells overexpressing HA-PPM1D at 5 to 20 incubated for 24 hrs; assay type: functional, cell-based
MCF7 [4] = assay: Induction of cell cycle arrest in human MCF7 cells assessed as increase in cell accumulation at subG1 phase incubated for 24 hrs by propidium iodide staining based flow cytometry; assay type: functional
MCF7 [5] = assay: Effect on PPM1D protein expression in UV irradiated human MCF7 cells by Western blotting method; assay type: functional, cell-based
[6] = target: T2, Protein phosphatase 1A (Homo sapiens) (UniProt P35813); assay: Inhibition of His-tagged PPM1A (unknown origin) at 2 to 10 uM using Ac-TDDE(Nle)T(P)GY(P)VAT-NH2 substrate
T2 sequence (whole entry): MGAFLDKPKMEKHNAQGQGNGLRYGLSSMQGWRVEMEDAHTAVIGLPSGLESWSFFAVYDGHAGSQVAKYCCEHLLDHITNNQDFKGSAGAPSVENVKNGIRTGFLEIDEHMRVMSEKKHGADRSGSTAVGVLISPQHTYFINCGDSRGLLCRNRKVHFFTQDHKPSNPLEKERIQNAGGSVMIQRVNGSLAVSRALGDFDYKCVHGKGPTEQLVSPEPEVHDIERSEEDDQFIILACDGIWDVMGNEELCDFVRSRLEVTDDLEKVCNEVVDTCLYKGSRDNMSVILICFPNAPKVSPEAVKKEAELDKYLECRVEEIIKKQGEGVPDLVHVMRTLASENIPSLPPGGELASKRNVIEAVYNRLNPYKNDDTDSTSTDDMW

MCF7 [7] = assay: Inhibition of cell proliferation of human MCF7 cells at > 20 uM incubated for 24 hrs; assay type: functional, cell-based
Homo sapiens [8] = species on record: Homo sapiens; assay: Inhibition of PP1 (unknown origin) at 2 to 10 uM using Ac-WGAKAKKT(P)PKAKK-NH2 substrate
Homo sapiens [9] = species on record: Homo sapiens; assay: Inhibition of PP2A (unknown origin) at 2 to 10 uM using Ac-TDDE(Nle)T(P)GY(P)VAT-NH2 substrate
MCF7 [10] = assay: Induction of cell cycle arrest in human MCF7 cells assessed as increase in cell accumulation at G2/M phase incubated for 24 hrs by propidium iodide staining based flow cytometry; assay type: functional
MCF7 [11] = assay: Induction of apoptosis in human MCF7 cells incubated for 24 hrs by Annexin-V staining based flow cytometry; assay type: functional, cell-based

Compound	IC50 (MCF7 [1])	IC50 (Protein phosphatase 1D)	inhibition (NCI-H1299 [2])	inhibition (NCI-H1299 [3])	Activity (MCF7 [4])	Activity (MCF7 [5])	inhibition [6]	inhibition (MCF7 [7])	inhibition (Homo sapiens [8])	inhibition (Homo sapiens [9])	Activity (MCF7 [10])	Activity (MCF7 [11])
CC[Si](CC)(CC)O[C@@H]1CCC[C@@H]2[C@@H]1C[C@H](O[Si](C)(C)C(C)(C)C)C[C@@]2(C)CO	36.1 µM											
CC[Si](CC)(CC)O[C@@H]1C[C@H](C)C[C@@H]2[C@@H]1C[C@H](O[Si](C)(C)C(C)(C)C)[C@@H]1[C@](C)(CO)C[C@H](O)C[C@@]21C	26.9 µM	0.0869 µM										
Cc1ncc(Cl)cc1NCc1ccc(C(=O)N[C@@H](CC2CCCC2)C(=O)NC2CC2)s1	9.5 µM	0.0863 µM	inactive	inactive								
CC[Si](CC)(CC)O[C@@H]1CCC[C@@H]2[C@@H]1C[C@H](O[Si](C)(C)C(C)(C)C)C[C@@]2(C)C(=O)O	7.4 µM		inactive	Active	Active	inactive	inactive	Active	inactive	inactive	Active	Active

Source: ChEMBL document CHEMBL3612007, “Novel inhibitors targeting PPM1D phosphatase potently suppress cancer cell proliferation” (Bioorg Med Chem, 2015)
